# ChEMBL document CHEMBL1201862, “PubChem BioAssay data set” (2004)
# The source made the active and inactive calls.
# Experiments:
# [1] = microbe, parasite or virus in culture; type: functional; settings: Mycobacterium tuberculosis
# [2] = target: Eukaryotic translation initiation factor 4E (Mus musculus, UniProt P63073); experiment: blockers of eIF4G binding by eIF4E – biochemical, TR-FRET, dose response (AID 855); type: functional;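 also: potency for disrupting eIF4E binding to eIF4GI seen as loss of FRET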
# Eukaryotic translation initiation factor 4E, sequence (P63073 whole entry): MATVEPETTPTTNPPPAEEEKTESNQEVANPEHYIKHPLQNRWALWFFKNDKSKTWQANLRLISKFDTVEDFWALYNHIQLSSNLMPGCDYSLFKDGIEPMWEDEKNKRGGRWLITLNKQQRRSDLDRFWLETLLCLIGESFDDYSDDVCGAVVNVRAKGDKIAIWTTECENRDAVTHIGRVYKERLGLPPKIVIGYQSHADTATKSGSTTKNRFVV
# [3] = system: Streptococcus; experiment: GAS UMAA2166 growth inhibition – luminescence, BacTiterGlo, counter-screen for streptokinase expression inhibitor project, dose response (AID 1915); type: functional, organism-based;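 also: potency for reduction of bacterial viability or growth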
# [4] = cells; type: functional
# [5] = system: Streptococcus sp. 'group A'; experiment: Streptococcus pyogenes SK(-)GAS viability under kanamycin – luminescence, BacTiterGlo, confirmation, counter-screen for streptokinase expression inhibitor project, dose response (AID 1900); type: functional, organism-based; settings: read-out: EC50
# [6] = target: Induced myeloid leukemia cell differentiation protein Mcl-1 (Homo sapiens, UniProt Q07820); type: functional
# Induced myeloid leukemia cell differentiation protein Mcl-1, sequence (Q07820 whole entry, the tested form may be a part): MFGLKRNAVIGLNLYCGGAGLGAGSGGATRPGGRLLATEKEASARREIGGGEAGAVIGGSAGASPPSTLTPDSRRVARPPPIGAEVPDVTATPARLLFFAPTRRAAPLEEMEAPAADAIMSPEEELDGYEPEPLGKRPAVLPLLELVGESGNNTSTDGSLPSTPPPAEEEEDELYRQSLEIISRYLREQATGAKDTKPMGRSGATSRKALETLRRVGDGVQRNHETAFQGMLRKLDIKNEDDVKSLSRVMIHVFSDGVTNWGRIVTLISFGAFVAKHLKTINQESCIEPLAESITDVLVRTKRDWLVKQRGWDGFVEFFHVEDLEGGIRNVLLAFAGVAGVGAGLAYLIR
# [7] = target: T1, Carboxy-terminal domain RNA polymerase II polypeptide A small phosphatase 1 (Homo sapiens, UniProt Q9GZU7); experiment: CTDSP1 inhibitors, concentration-response, biochemical, absorbance readout, ultra-high-throughput screen actives (AID 540297); type: functional
# T1 sequence (Q9GZU7 whole entry): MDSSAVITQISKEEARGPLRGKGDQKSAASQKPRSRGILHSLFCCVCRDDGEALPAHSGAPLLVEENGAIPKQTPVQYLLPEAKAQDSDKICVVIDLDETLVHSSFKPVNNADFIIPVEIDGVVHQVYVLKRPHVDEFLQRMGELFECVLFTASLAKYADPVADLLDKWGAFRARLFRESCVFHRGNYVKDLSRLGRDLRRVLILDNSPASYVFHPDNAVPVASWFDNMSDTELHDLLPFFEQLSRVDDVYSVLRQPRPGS
# [8] = alpha-synuclein stem-loop luciferase translation blockers – H4 neuroglioma cells, luminescence, confirmation (AID 1988); type: functional, cell-based
# [9] = luciferase reporter signal suppression in cells – H4 neuroglioma cells, luminescence, dose response (AID 1990); type: functional, cell-based
# [10] = target: T2, Corticotropin-releasing factor receptor 2/Corticotropin-releasing factor-binding protein (Homo sapiens, UniProt P24387+Q13324); experiment: activators of CRF receptor 2 with binding protein – uHTS hits, confirmation (AID 602473); type: functional; settings: read-out: EC50_Mean
# T2 sequence (Q13324 whole entry): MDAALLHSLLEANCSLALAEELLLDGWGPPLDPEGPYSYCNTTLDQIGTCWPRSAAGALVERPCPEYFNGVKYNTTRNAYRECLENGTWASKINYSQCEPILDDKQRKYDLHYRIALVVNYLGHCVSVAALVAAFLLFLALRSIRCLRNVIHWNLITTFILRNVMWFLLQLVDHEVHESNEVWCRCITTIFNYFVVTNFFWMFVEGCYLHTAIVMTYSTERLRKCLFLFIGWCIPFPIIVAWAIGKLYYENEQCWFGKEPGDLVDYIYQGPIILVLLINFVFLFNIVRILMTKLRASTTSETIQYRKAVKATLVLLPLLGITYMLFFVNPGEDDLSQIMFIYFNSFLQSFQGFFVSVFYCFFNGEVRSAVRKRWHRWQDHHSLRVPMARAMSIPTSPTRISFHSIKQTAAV
# T2 sequence (P24387 whole entry): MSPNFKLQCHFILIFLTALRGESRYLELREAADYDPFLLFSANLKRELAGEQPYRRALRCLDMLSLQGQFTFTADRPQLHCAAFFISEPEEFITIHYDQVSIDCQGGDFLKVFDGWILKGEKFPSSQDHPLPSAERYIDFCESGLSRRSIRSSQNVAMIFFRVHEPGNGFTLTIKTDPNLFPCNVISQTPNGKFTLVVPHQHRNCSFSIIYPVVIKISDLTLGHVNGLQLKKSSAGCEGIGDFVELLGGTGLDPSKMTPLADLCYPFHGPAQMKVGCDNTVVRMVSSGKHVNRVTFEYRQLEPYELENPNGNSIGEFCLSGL
# [11] = system: INS1; experiment: INS-1E survival protection against cytokine death – cell-based, luminescence, retest, dose response (AID 449756); type: functional; settings: Rattus norvegicus;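 also: cell death triggered by IL-1 beta plus TNF-alpha plus IFN-gamma mixture; protective hits raise ATP signal compared with cytokine alone wells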
# [12] = Luminescence Cell-Based Dose Response HTS to Identify Inhibitors of 5'UTR Stem-Loop Driven Prion Protein mRNA Translation in H4 Neuroglioblastoma Cells. [Related pubchem assays: 1827 (Project Summary), 1813 (Primary HTS)]; type: functional
# [13] = target: T3, Streptokinase A (Streptococcus pyogenes serotype M1, UniProt P10520); experiment: viability-normalized secreted streptokinase activity reduction – plasminogen activation absorbance, OD405, dose response (AID 1914); type: functional, Streptococcus pyogenes M1 GAS;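 also: secreted streptokinase activity via plasminogen activation per viability signal from cell pellet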
# T3 sequence (P10520 whole entry): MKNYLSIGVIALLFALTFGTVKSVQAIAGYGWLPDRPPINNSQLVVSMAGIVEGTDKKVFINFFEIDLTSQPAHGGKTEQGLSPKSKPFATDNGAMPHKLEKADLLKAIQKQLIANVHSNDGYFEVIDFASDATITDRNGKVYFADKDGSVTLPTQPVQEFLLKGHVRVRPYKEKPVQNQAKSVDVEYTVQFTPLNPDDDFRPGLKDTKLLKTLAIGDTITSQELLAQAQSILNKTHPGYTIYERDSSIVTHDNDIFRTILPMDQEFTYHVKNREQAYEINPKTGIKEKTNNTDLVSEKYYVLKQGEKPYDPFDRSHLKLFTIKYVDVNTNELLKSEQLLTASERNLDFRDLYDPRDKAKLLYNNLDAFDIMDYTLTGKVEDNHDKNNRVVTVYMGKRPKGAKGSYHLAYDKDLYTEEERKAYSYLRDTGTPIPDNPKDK
# [14] = viability of PTEN-deleted HCT116 cells – cell-based, HCT116 PTEN knockout, dose response (AID 1047); type: functional;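 also: HCT116 colon tumor cells with PTEN knocked out; cells exposed to compound for 60 hours before readout; potency for loss of cell viability measured by luminescence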
# [15] = viability of HCT116 lacking mutant beta-catenin – cell-based, human colon tumor, dose response (AID 1045); type: functional;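 also: HCT116 colon tumor cells with beta catenin knocked out; cells exposed to compound for 60 hours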
# [16] = reduction of Shn3 3'UTR-driven luciferase in osteoblasts – cell-based, Clone20 osteoblasts, firefly luciferase, cherry-picked, dose response (AID 624132); type: functional;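 also: firefly luciferase luminescence from reporter carrying the Shn3 3'UTR in osteoblasts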
# [17] = cells; type: functional, cell-based
# [18] = cells; type: functional, cell-based; remark: listed apart in the source
# [19] = non-specific 3'UTR reporter inhibition in Clone20-Shn3RL – cell-based, Renilla luciferase, cherry-picked, counter-screen for Shn3 inhibitor project, dose response (AID 624133); type: functional
# [20] = blockers of HIV-1 ZM109 envelope-driven cell-cell fusion – HeLa effector, CEM target cells, luciferase, cherry-pick, dose response (AID 652058); type: functional, cell-based;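 also: luciferase signal from HIV-1 Env mediated cell-cell fusion of effector and target cells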
# [21] = HIV-1 AD8 envelope cell-cell fusion blockers – cherry-pick, dose response (AID 652062); type: functional, cell-based;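 also: luciferase signal from cell-cell fusion driven by HIV-1 clade B AD8 Env; potency is for inhibitors of fusion seen as a drop in luminescence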
# [22] = blockers of HIV-1 envelope-mediated cell-cell fusion – cherry-pick, dose response (AID 652057); type: functional, cell-based
# [23] = target: Paired box protein Pax-8 (Homo sapiens, UniProt Q06710); experiment: PAX8 transcriptional activity inhibition in RMG-I – RMG-I cells, luciferase, cherry-pick, dose response (AID 687027); type: functional, cell-based;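 also: luciferase reporter driven by Pax8 target thyroperoxidase promoter measured by SteadyGlo luminescence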
# Paired box protein Pax-8, sequence (Q06710 whole entry): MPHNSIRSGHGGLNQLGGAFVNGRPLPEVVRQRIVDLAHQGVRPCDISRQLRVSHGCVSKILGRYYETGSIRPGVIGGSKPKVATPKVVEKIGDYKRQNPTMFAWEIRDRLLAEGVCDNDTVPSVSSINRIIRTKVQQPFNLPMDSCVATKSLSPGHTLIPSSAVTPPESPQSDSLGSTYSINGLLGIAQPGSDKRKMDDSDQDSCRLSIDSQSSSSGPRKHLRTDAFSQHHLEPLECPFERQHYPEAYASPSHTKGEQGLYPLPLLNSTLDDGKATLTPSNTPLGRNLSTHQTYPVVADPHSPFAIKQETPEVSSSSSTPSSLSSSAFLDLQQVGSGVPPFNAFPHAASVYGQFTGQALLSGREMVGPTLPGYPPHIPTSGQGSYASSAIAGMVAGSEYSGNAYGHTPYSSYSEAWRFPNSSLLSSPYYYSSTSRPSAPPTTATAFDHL
# [24] = P. falciparum Dd2 growth inhibitors, dose response, SYBR Green, cherry-picked samples (AID 1159567); type: functional, cell-based
# [25] = Luminescence Cell-Based Dose Retest to Confirm Inhibitors of Cancer Stem Cells. [Related pubchem assays (depositor defined):AID2717, AID2721]; type: functional, Homo sapiens; settings: Homo sapiens
# [26] = Trypanosoma cruzi growth suppression in host cells – NIH3T3 host cells, beta-gal luminescence, confirmation (AID 2044); type: functional, cell-based;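 also: intracellular parasites grown in NIH/3T3 mouse fibroblasts as host cells; luminescent beta-galactosidase reporter signal from transgenic T. cruzi replicating inside host cells; inhibitors lower the luminescence signal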
# [27] = NIH3T3 cell viability loss – ATP luminescence, mouse fibroblasts, counter-screen, dose response (AID 2010); type: functional, cell-based;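 also: cells exposed to compound for about 90 hours before reading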
structure (smiles),measurement,setting,value
NNc1nc2ccc(Cl)cc2s1,CC50,[1],> 40 µM (active)
CCOC(=O)c1c(-c2cccc([N+](=O)[O-])c2)csc1NC(=O)CCCOc1ccccc1,IC50,[2],> 64 µM (inactive)
O=C(Nc1nnc(C2=COCCO2)o1)c1ccc(Cc2ccccc2)cc1,EC50,[3],3.96 µM (active)
same,IC50,[4],10.2 µM (active)
same,EC50,[5],2.54 µM (active)
same,CC50,[1],> 40 µM (active)
CCCOC(=O)c1ccc(OCC(O)CN2CCN(C(=O)c3ccccc3)CC2)cc1 (stereo unspecified),IC50,[2],> 64 µM (inactive)
COC(=O)[C@@]1(Cc2ccccc2)[C@H]2c3cc(C(=O)N4CCCC4)n(CCSCCO)c3C[C@H]2CN1C(=O)c1ccccc1,IC50,[6],1.87 µM (not active)
CCOC(=O)c1[nH]c(CN2CCN(c3ccc(OC)cc3)CC2)c(C(=O)OCC)c1C,CC50,[1],> 40 µM (active)
COc1cc(NC(=O)c2ccccc2)c(OC)cc1NC(=O)Cc1cccs1,IC50,[2],50 µM (inactive)
same,IC50,[7],3.86 µM (active)
CCCCCCc1cc2cc(C(=O)Nc3cccc(OC)c3)c(=O)oc2cc1O,EC50,[8],16.6 µM (active)
same,EC50,[9],> 120 µM (not active)
same,EC50,[10],> 53 µM (inactive)
same,AC50,[11],4.06 µM (active)
same,EC50,[12],65.8 µM (active)
COc1ccc(C(=O)Nc2ccccc2C(N)=O)cc1,IC50,[2],> 64 µM (inactive)
CC(C)CN1C(=S)SC(C)(C)C1n1oc(=O)n(-c2ccc(Cl)cc2)c1=O (stereo unspecified),EC50,[3],18.8 µM (active)
same,EC50,[13],5.59 µM (active)
same,EC50,[14],21.9 µM (active)
same,EC50,[5],4.36 µM (active)
same,EC50,[15],20.7 µM (active)
O=C(c1ccc([N+](=O)[O-])cc1)c1cc2ccc(O)cc2oc1=O,IC50,[7],10.8 µM (active)
COC(=O)CNC(=O)COC(=O)C(Cc1ccccc1)NC(=O)c1ccco1 (stereo unspecified),EC50,[10],> 53 µM (inactive)
COc1ccccc1NC(=S)NC(=O)Cc1ccc(Cl)cc1,EC50,[10],9.41 µM (active)
O=C(NC(=S)N1CCc2ccccc21)c1ccc(Br)o1,CC50,[1],39.7 µM (active)
Cc1ccc2nc(N3C(=O)C(O)=C(C(=O)c4cc5ccccc5o4)C3c3cccs3)sc2c1 (stereo unspecified),EC50,[3],7.6 µM (active)
same,EC50,[5],1.39 µM (active)
same,IC50,[6],2.37 µM (active)
C[C@@H](O)C1NC(=O)[C@H](CCCCN)NC(=O)c2cc([N+](=O)[O-])cc(I)c2NCCC[C@@H](C(N)=O)NC1=O (stereo partly specified),IC50,[2],> 64 µM (inactive)
CCN1C(NCCc2ccc(Br)cc2)=N[C@@H](c2ccccc2)[C@H](C(=O)OC)[C@H]1C,CC50,[1],34.3 µM (active)
O=c1c(/C=C(\O)c2ccc(F)cc2)nc2ccccc2n1-c1ccccc1,EC50,[10],7.18 µM (active)
O=C(CCS(=O)(=O)c1cccc2nsnc12)NCc1ccccc1Cl,IC50,[2],> 64 µM (inactive)
CC(C)c1cc(C(=O)Nc2cccc(Cl)c2)no1,IC50,[2],> 64 µM (inactive)
C=CCNc1oc(-c2ccc(-c3ccccc3)cc2)nc1C#N,CC50,[1],> 40 µM (active)
COc1ccc2c(c1OC)C(=O)N1c3ccccc3C(=O)N(c3ccccc3F)C21 (stereo unspecified),EC50,[8],12 µM (active)
same,AC50,[16],11.6 µM (active)
same,EC50,[9],> 120 µM (not active)
same,EC50,[12],13.1 µM (active)
COc1ccc2[nH]c(=O)c(CN(CCN3CCCC3)C(=O)Nc3ccccc3Cl)cc2c1,IC50,[2],> 64 µM (inactive)
COc1ccc(CC(=O)Nc2ccc(-c3noc(-c4ccc(Cl)cc4)n3)cc2)cc1,EC50,[14],2.11 µM (active)
same,EC50,[15],1.69 µM (active)
O=C(NCc1ccco1)c1cc(-c2ccccc2)on1,EC50,[17],62.4 µM (active)
same,EC50,[18],> 350 µM (not active)
CCCCC(=O)Nc1ccc2oc(-c3ccncc3)nc2c1,IC50,[2],> 64 µM (inactive)
O=C(CCS(=O)(=O)c1ccc(Br)cc1)NCc1ccc(F)cc1,IC50,[7],7.9 µM (active)
CC(=O)O[C@H]1CC[C@@]2(C)C(=CC[C@H]3[C@@H]4CC[C@H](C(C)=O)[C@@]4(C)CC[C@@H]32)C1,AC50,[16],28.5 µM (active)
same,AC50,[19],29 µM (active)
COc1ccc2o/c(=N\c3ccccc3)c(-c3nc4ccccc4[nH]3)cc2c1,EC50,[14],2.22 µM (active)
same,EC50,[15],2.59 µM (active)
CCCNC(=O)C[C@H]1CC[C@@H]2[C@@H](COc3ccc(NC(=O)c4cccc(C(F)(F)F)c4)cc3C(=O)N2C)O1,AC50,[20],5.51 µM (active)
same,AC50,[21],12.7 µM (active)
same,AC50,[22],36 µM (active)
C[C@H](CO)N1C[C@H](C)[C@@H](CN(C)Cc2ccc(Cl)c(Cl)c2)Oc2ccc(N(C)C)cc2C1=O,AC50,[20],5.9 µM (active)
same,AC50,[21],8.23 µM (active)
same,AC50,[22],10.5 µM (active)
C[C@H]1CN([C@@H](C)CO)S(=O)(=O)c2ccc(C#Cc3ccccc3F)cc2O[C@H]1CN(C)C(=O)c1ccc2c(c1)OCO2,AC50,[23],5.76 µM (active)
same,AC50,[24],5.07 µM (active)
O=C1c2ccccc2C(=O)N1/N=C/c1ccc(O)c(O)c1O,IC50,[6],2.28 µM (active)
COc1cc(/C=N/NC2=NC(=O)C(CC(=O)O)S2)ccc1OCc1ccc(Cl)cc1 (stereo unspecified),IC50,[7],12.4 µM (active)
CCOC(=O)/C(=N/Nc1ccccc1)c1csc(Nc2ccccc2)n1,EC50,[3],4.88 µM (active)
same,AC50,[25],1.88 µM (active)
same,EC50,[26],1.39 µM (active)
same,EC50,[13],> 150 µM (not active)
same,EC50,[27],> 30 µM (not active)
same,EC50,[5],3.92 µM (active)
same,CC50,[1],> 40 µM (active)
CSc1ccc(/C=N/NC(=O)c2ccc(C)c(C)c2)cc1,IC50,[7],9.17 µM (active)
C[C@H](CO)N1C[C@H](C)[C@H](CN(C)CC2CC2)Oc2ccc(NS(=O)(=O)c3ccc(Cl)cc3)cc2CC1=O,AC50,[24],5.58 µM (active)
N#C[C@@H]1[C@@H](c2ccc(C#CC3CCCCC3)cc2)[C@H](CO)N1C(=O)Nc1ccc(F)cc1,AC50,[24],5.12 µM (active)
COCC(=O)Nc1ccc2c(c1)C(=O)N(C)C[C@@H](OC)[C@H](C)CN(CC1CCCCC1)[C@@H](C)CO2,AC50,[24],6.65 µM (active)
